According to patent US10448639B2, “Fungicidal pyrazoles” (FMC CORPORATION, priority 2009, dated 2019):

How the values were obtained:
[1] = system: Puccinia recondita f. sp. tritici; test: Test H: wheat leaf rust, curative spray on inoculated wheat seedlings, visual disease rating; details: for pest or weed control at 200 µg/mL: 144 h, read-out: Test H rating (% disease control); for Test H rating (% disease control) / Test H disease control rating: wheat leaf rust, 100 = 100% disease control; for Test H disease control rating: sprayed after inoculation, 0 = no disease control relative to controls
[2] = system: Puccinia recondita f. sp. tritici; test: Test I: wheat leaf rust, preventive spray on wheat seedlings, visual disease rating; details: for pest or weed control at 200 µg/mL: 192 h, read-out: Test I rating (% disease control); for Test I rating (% disease control) / Test I disease control rating: wheat leaf rust, 100 = 100% disease control; for Test I disease control rating: sprayed the day before inoculation, 0 = no disease control relative to controls
Description: General protocol for preparing test suspensions for Tests A-J: the test compounds were first dissolved in acetone in an amount equal to 3% of the final volume and then suspended at the desired concentration (in ppm) in acetone and purified water (50/50 mix by volume) containing 250 ppm of the surfactant Trem® 014 (polyhydric alcohol esters). The resulting test suspensions were then used in Tests A-J. Spraying a 200 ppm test suspension to the point of run-off on the test plants was the equivalent of a rate of 500 g/ha. Unless otherwise indicated, the rating values indicate a 200 ppm test suspension was used. (An asterisk “*” next to the rating value indicates a 40 ppm test suspension was used.)
The test suspension was sprayed to the point of run-off on wheat seedlings. The following day the seedlings were inoculated with a spore suspension of Puccinia recondita f. sp. tritici (the causal agent of wheat leaf rust) and incubated in a saturated atmosphere at 20° C. for 24 h, and then moved to a growth chamber at 20° C. for 7 days, after which time visual disease ratings were made
A dash (-) indicates no test results.

Alternaria solani = test: Test C: tomato early blight, preventive spray on tomato seedlings, visual disease rating; details: for pest or weed control at 200 µg/mL: Alternaria solani, in Solanum lycopersicum, 168 h, read-out: Test C rating (% disease control); for Test C rating (% disease control) / Test C disease control rating: tomato early blight, 100 = 100% disease control; for Test C disease control rating: 0 = no disease control relative to controls
Septoria tritici = test: Test G: wheat leaf blotch, preventive spray on wheat seedlings, visual disease rating; details: for pest or weed control at 200 µg/mL: Zymoseptoria tritici, in Triticum aestivum, 504 h, read-out: Test G rating (% disease control); for Test G rating (% disease control) / Test G disease control rating: wheat leaf blotch, 100 = 100% disease control; for Test G disease control rating: sprayed the day before inoculation, 0 = no disease control relative to controls
Botrytis cinerea = test: Test B: tomato Botrytis, preventive spray on tomato seedlings, visual disease rating; details: for pest or weed control at 200 µg/mL: Botrytis cinerea, in Solanum lycopersicum, 120 h, read-out: Test B rating (% disease control); for Test B rating (% disease control) / Test B disease control rating: tomato Botrytis, 100 = 100% disease control; for Test B disease control rating: 0 = no disease control relative to controls
[3] = system: Erysiphe graminis f sp. tritici; test: Test J: wheat powdery mildew, preventive spray on wheat seedlings, visual disease rating; details: for pest or weed control at 200 µg/mL: Blumeria graminis, in Triticum aestivum, 192 h, read-out: Test J rating (% disease control); for Test J rating (% disease control) / Test J disease control rating: wheat powdery mildew, 100 = 100% disease control; for Test J disease control rating: sprayed the day before inoculation, 0 = no disease control relative to controls
Septoria nodorum = test: Test F: Septoria glume blotch, preventive spray on wheat seedlings, visual disease rating; details: for pest or weed control at 200 µg/mL: Parastagonospora nodorum, in Triticum aestivum, 192 h, read-out: Test F rating (% disease control); for Test F rating (% disease control) / Test F disease control rating: 100 = 100% disease control; for Test F disease control rating: 0 = no disease control relative to controls
[4] = curative, 0 = no control relative to controls
[5] = preventive, 0 = no control relative to controls
[6] = 0 = no control relative to controls
[7] = Septoria glume blotch, 0 = no control relative to controls
[8] = preventive spray, 0 = no control
[9] = Septoria glume blotch on wheat, preventive spray, 0 = no control

SMILES | Test H rating (% disease control) [1, 4] | Test I rating (% disease control) [2, 5] | Test C rating (% disease control) (Alternaria solani; [6]) | Test G rating (% disease control) (Septoria tritici; [6]) | Test B rating (% disease control) (Botrytis cinerea; [6]) | Test J rating (% disease control) [3, 6] | Test F rating (% disease control) (Septoria nodorum; [7]) | Test H rating (% disease control) ([1]; curative spray, 0 = no control) | Test I rating (% disease control) [2, 8] | Test C rating (% disease control) (Alternaria solani; [8]) | Test G rating (% disease control) (Septoria tritici; [8]) | Test B rating (% disease control) (Botrytis cinerea; [8]) | Test J rating (% disease control) [3, 8] | Test F rating (% disease control) (Septoria nodorum; [9]) | other results
Cc1nn(C)c(Oc2c(F)cc([N+](=O)[O-])cc2F)c1-c1c(F)cc(F)cc1F [Compound 54, 5-(2,6-Difluoro-4-nitrophenoxy)-1,3-dimethyl-4-(2,4,6-trifluorophenyl)-1H-pyrazole] |  |  |  |  |  |  |  |  |  |  |  |  |  |  | pest or weed control at 200 µg/mL [1]: 0%; pest or weed control at 200 µg/mL [2]: 95%; pest or weed control at 200 µg/mL (Alternaria solani): 0%; pest or weed control at 200 µg/mL (Septoria tritici): 41%; pest or weed control at 200 µg/mL (Botrytis cinerea): 96%; pest or weed control at 200 µg/mL [3]: 95%; pest or weed control at 200 µg/mL (Septoria nodorum): 0%
Cc1nn(C)c(Nc2ccc(F)cc2F)c1-c1ccccc1C(F)(F)F [compound 238] | 53% | 9% | 0% | 0% | 99% | 43% | 0% |  |  |  |  |  |  |  | 
Cc1nn(C)c(Nc2ccc(F)c(F)c2)c1-c1c(F)cc(C#N)cc1F [compound 114] |  |  |  |  |  |  |  | 8% | 99% | 24% | 99% | 99% | 84% | 69% | 
Cc1nn(C)c(Nc2ccc(F)cc2F)c1-c1ccc(Cl)cc1Cl [Compound 69, 4-(2,4-Dichlorophenyl)-N-(2,4-difluorophenyl)-1,3-dimethyl-1H-pyrazol-5-amine] |  |  |  |  |  |  |  |  |  |  |  |  |  |  | pest or weed control at 200 µg/mL [1]: 91%; pest or weed control at 200 µg/mL [2]: 99%; pest or weed control at 200 µg/mL (Alternaria solani): 73%; pest or weed control at 200 µg/mL (Septoria tritici): 99%; pest or weed control at 200 µg/mL (Botrytis cinerea): 100%; pest or weed control at 200 µg/mL [3]: 100%; pest or weed control at 200 µg/mL (Septoria nodorum): 60%
Cc1ncc(Nc2c(-c3ccc(F)cc3Cl)c(C)nn2C)cn1 [compound 269] | 8% | 0% | 0% | 67% | 80% | 0% | 0% |  |  |  |  |  |  |  | 
Cc1nn(C)c(Nc2ccc(F)cc2Cl)c1-c1c(Cl)cccc1Cl [compound 334] |  |  |  |  |  |  |  |  |  |  |  |  |  |  | Test H disease control rating [1]: 0%; Test I disease control rating [2]: 97%; Test C disease control rating (Alternaria solani): 0%; Test G disease control rating (Septoria tritici): 100%; Test B disease control rating (Botrytis cinerea): 100%; Test J disease control rating [3]: 100%; Test F disease control rating (Septoria nodorum; Septoria glume blotch on wheat): 0%
Cc1nn(C)c(Nc2c(F)cc(F)cc2F)c1-c1ccccc1Br [compound 248] | 0% | 99% | 26% | 100% | 99% | 100% | 73% |  |  |  |  |  |  |  | 
Cc1nn(C)c(Nc2cc(F)c(F)cc2F)c1-c1ccc(F)cc1F [compound 229] | 0% | 91% | 17% | 99% | 99% | 98% | 0% |  |  |  |  |  |  |  | 
Cc1nn(C)c(Nc2ccc(F)cc2Cl)c1-c1c(F)cccc1Cl [Compound 193, N-(2-chloro-4-fluorophenyl)-4-(2-chloro-6-fluorophenyl)-1,3-dimethyl-1H-pyrazol-5-amine] |  |  |  |  |  |  |  |  |  |  |  |  |  |  | pest or weed control at 200 µg/mL [1]: 32%; pest or weed control at 200 µg/mL [2]: 99%; pest or weed control at 200 µg/mL (Alternaria solani): 100%; pest or weed control at 200 µg/mL (Septoria tritici): 100%; pest or weed control at 200 µg/mL (Botrytis cinerea): 99%; pest or weed control at 200 µg/mL [3]: 100%; pest or weed control at 200 µg/mL (Septoria nodorum): 0%
COc1ccc(F)c(-c2c(C)nn(C)c2Oc2c(F)cc(C#N)cc2F)c1 [compound 278] | 0% | 82% | 0% | 99% | 99% | 100% | 0% |  |  |  |  |  |  |  | 
Cc1nn(C)c(Nc2cccc(F)c2F)c1-c1c(F)cc(C#N)cc1F [compound 145] |  |  |  |  |  |  |  | 88% | 100% | 98% | 100% | 96% | 100% | 100% | 
COc1cc(OC)cc(-c2c(C)nn(C)c2Oc2c(F)cc(C#N)cc2F)c1 [compound 85] |  |  |  |  |  |  |  | 0% | 19% | 0% | 17% | 0% | 0% | 0% | 
Cc1nn(C)c(Nc2ccc(C#N)cc2F)c1-c1c(F)cc(F)cc1F [compound 120] |  |  |  |  |  |  |  | 0% | 99% | 99% | 100% | 100% | 99% | 94% | 
COc1cc(F)c(-c2c(C)nn(C)c2Nc2ccc(F)cc2Cl)c(F)c1 [Compound 87, N-(2-chloro-4-fluorophenyl)-4-(2,6-difluoro-4-methoxyphenyl)-1,3-dimethyl-1H-pyrazol-5-amine] |  |  |  |  |  |  |  |  |  |  |  |  |  |  | pest or weed control at 200 µg/mL [1]: 85%; pest or weed control at 200 µg/mL [2]: 99%; pest or weed control at 200 µg/mL (Alternaria solani): 100%; pest or weed control at 200 µg/mL (Septoria tritici): 98%; pest or weed control at 200 µg/mL (Botrytis cinerea): 100%; pest or weed control at 200 µg/mL [3]: 100%; pest or weed control at 200 µg/mL (Septoria nodorum): 95%
COc1cc(F)c(Nc2c(-c3c(F)cc(F)cc3F)c(C)nn2C)c(F)c1 [compound 78] |  |  |  |  |  |  |  | 0% | 89% | 82% | 98% | 99% | 91% | 0% | 
Cc1nn(C)c(Nc2c(F)cc(F)cc2F)c1-c1c(F)cccc1F [compound 300] | 9% | 99% | 99% | 100% | 100% | 100% | 82% |  |  |  |  |  |  |  | 
COc1cc(Oc2c(-c3c(F)cc(F)cc3F)c(C)nn2C)ccc1Cl [compound 164] | 15% | 9% | 57% | 99% | 49% | 97% | 0% |  |  |  |  |  |  |  | 
COc1ccc(Nc2c(-c3c(F)cccc3F)c(C)nn2C)c(Cl)c1 [compound 201] | 18% | 97% | 97% | 100% | 99% | 99% | 20% |  |  |  |  |  |  |  | 
Cc1nn(C)c(Oc2ccc(C#N)cc2Cl)c1-c1c(F)cc(F)cc1F [compound 98] |  |  |  |  |  |  |  | 26% | 99% | 17% | 100% | 100% | 99% | 69% | 
Cc1nn(C)c(Oc2ccc(C#N)cc2F)c1-c1c(F)cccc1Cl [compound 342] |  |  |  |  |  |  |  |  |  |  |  |  |  |  | Test H disease control rating [1]: 0%; Test I disease control rating [2]: 100%; Test C disease control rating (Alternaria solani): 33%; Test G disease control rating (Septoria tritici): 100%; Test B disease control rating (Botrytis cinerea): 100%; Test J disease control rating [3]: 100%; Test F disease control rating (Septoria nodorum; Septoria glume blotch on wheat): 99%
